Residues, ends and D or L forms follow the SMILES beside them.
Tests used:
TLR4 = molecular target: T1, TLR4 (Mus musculus, UniProt Q9QUK6); experiment: TLR4 protein level by Western blot in hypoxic cardiomyocytes; type: cell-based; settings: 20 μM, hypoxic conditions
T1 construct: endogenous in cells; host or cells: primary cardiomyocytes under hypoxia
T1 sequence (Q9QUK6 26-835): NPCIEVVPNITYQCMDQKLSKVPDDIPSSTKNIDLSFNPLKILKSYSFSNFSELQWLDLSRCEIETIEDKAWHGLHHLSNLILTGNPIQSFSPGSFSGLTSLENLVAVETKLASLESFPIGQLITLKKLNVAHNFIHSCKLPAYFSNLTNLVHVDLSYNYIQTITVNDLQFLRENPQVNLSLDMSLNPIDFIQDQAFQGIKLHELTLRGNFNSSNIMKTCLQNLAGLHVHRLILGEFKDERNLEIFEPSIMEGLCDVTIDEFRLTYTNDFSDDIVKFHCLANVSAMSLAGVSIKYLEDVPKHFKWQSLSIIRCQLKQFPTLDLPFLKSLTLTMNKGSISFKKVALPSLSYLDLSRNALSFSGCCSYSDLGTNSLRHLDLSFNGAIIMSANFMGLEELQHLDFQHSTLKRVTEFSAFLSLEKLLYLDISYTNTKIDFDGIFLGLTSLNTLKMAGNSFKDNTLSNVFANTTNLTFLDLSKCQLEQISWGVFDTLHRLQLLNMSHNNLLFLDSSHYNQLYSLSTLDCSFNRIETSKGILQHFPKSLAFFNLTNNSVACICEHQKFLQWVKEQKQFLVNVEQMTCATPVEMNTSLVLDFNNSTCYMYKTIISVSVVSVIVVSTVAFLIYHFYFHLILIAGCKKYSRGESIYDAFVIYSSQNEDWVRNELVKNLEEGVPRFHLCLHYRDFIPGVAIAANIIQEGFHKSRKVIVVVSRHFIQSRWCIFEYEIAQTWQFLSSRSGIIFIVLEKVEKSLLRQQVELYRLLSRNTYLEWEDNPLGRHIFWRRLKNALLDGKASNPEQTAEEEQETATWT
Protocol: (§1) Frozen tissue/cell cultures of liver or heart were pulverized under liquid nitrogen and placed in a homogenization buffer ([…] phosphate buffer, […] sucrose, […] EDTA, […] phenylmethylsulfonyl fluoride (PMSF), and 0.1% vol/vol tergitol, pH 7.5). Myocytes from cell cultures were homogenized in lysis buffer.
Homogenates were centrifuged at 12K rpm for 10 minutes at 4° C., the supernatant was isolated, and protein levels were visualized by immunoblotting with antibodies. Briefly, proteins (60 μg/sample) were separated using SDS-PAGE gel (12%-15%) under denaturing conditions and electro-transferred (blotted) onto nitrocellulose (Bio-Rad) for 1 hour at 100 V. Membranes were blocked with 5% nonfat milk in Tris-buffered saline with 0.1% Tween® 20 (TBST) for 1 hour at room temperature. Primary antibodies were used at a 1:200-1:1000 concentration in TBST with 5% nonfat milk overnight at 4° C. Immunodetection of β-actin/GPDH was performed as an internal control. Dye 800/680 secondary antibodies were added at a concentration of 1:15000 for 1 hour at room temperature (LI-COR® Biosciences, NE, USA). Detection was carried out with LI-CORE® Odyssey® imaging system. Quantification of signals was carried out with the Odyssey® program. […]

IκB = IκB protein level by Western blot in hypoxic cardiomyocytes; type: cell-based
Protocol: as §1
Homogenates were centrifuged at 12K rpm for 10 minutes at 4° C., the supernatant was isolated, and protein levels were visualized by immunoblotting with antibodies. Briefly, proteins (60 μg/sample) were separated using SDS-PAGE gel (12%-15%) under denaturing conditions and electro-transferred (blotted) onto nitrocellulose (Bio-Rad) for 1 hour at 100 V. Membranes were blocked with 5% nonfat milk in Tris-buffered saline with 0.1% Tween® 20 (TBST) for 1 hour at room temperature. Primary antibodies were used at a 1:200-1:1000 concentration in TBST with 5% nonfat milk overnight at 4° C. Immunodetection of β-actin/GPDH was performed as an internal control. Dye 800/680 secondary antibodies were added at a concentration of 1:15000 for 1 hour at room temperature (LI-COR® Biosciences, NE, USA). Detection was carried out with LI-CORE® Odyssey® imaging system. Quantification of signals was carried out with the Odyssey® program.
The mechanism of action of peptidomimetics of SEQ ID NOs:1, 2 and 12 was studied in vitro in cardiomyocytes, under hypoxic conditions, by determining the expression level of the IκB gene, which is regulated by activation of TLR4, and by measuring the TLR4 mRNA levels. In addition, TLR4 expression level was measured in macrophage (derived from monocytes) treated with LPS.
IκB protein level was determined by Western blot as described in Material and Methods. The amount of IκB was normalized via-a-vis the amount of β-actin serving as the loading control (the β-actin is coded by a housekeeping gene and its level is expected to remain constant under any experimental conditions).

primary cardiomyocytes = experiment: CK and LDH release by primary cardiomyocytes under hypoxia (MI like); type: cell-based, Rat
Protocol: Rat hearts (1-2 days old) were removed under sterile conditions and washed three times in phosphate-buffered saline (PBS) to remove excess blood cells. The hearts were minced and then gently agitated in RBD (a solution of proteolytic enzymes (Biological Institute, Ness-Ziona, Israel) prepared from fig tree extract, and diluted 1:100 in Ca^2+- and Mg^2+-free PBS) for a few cycles of 10 min each. Dulbecco's modified Eagle's medium (Biological Industries, Kibbutz Beit Haemek, Israel) containing 10% horse serum was added to supernatant suspensions containing the dissociated cells. The mixture was centrifuged at 1400 rpm for 4 min. The supernatant phase was discarded, and the cells were re-suspended. The cell suspension was diluted to 1.0×10^6 cells/ml, unless stated otherwise, and 1.5 ml of the suspension was placed in 35-mm plastic culture dishes collagen- or gelatin-coated, or on coated cover glasses. The cultures were incubated in a humidified atmosphere of 5% CO2 and 95% air at 37° C.
Using a vacuum pump, the oxygen rich air was evacuated from an incubator containing plates with cell cultures, and a 100% Argon atmosphere was let in, while maintaining a temperature of 37° C. The cell cultures were washed with PBS twice to remove glucose from the medium. Hypoxic treated cells were cultures in PBS without glucose. These cells lasted for 180 minutes.
Primary cardiomyocytes which were obtained by method described above, were treated with exemplary decoy peptides described herein. After 30 minutes of incubation, sepsis like (LPS treatment for 6 hours), or myocardial infarction (MI) like (hypoxia for 3 hours) conditions were imposed to measure the release of CK and LDH to the medium and determine the potential cardioprotective effect of the tested decoy peptides. Cytotoxicity and level of cell damage were assessed by spectrophotometric measurement of lactate dehydrogenase (LDH) and creatine kinase (CK) activities (at 30° C.). Results are presented as CK and LDH release in arbitrary units (a.u.)
Activity of LDH and CK was determined in the cell-culture medium (25 μl) transferred into 96-well plates, using commercial L-LDH/CK kits (such as those manufactured, e.g., by Sigma-Aldrich, BioVision™ or Thermo Fisher Scientific®).
Primary cardiomyocytes were treated with peptides and peptidomimetics of SEQ ID NOs:1-7 provided at concentrations ranging from 1 μM to 20 μM. Following 30 minutes of incubation, sepsis like (LPS treatment for 6 hours) or MI like (hypoxia for 3 hours) conditions were induced to determine the potential cardioprotective effect of the tested compounds. Creatine kinase (CK) and lactate dehydrogenase (LDH) activity were assayed to determine the level of cellular damage and cell protection effect. The experimental procedure is described in Materials and Methods above. Results are presented as CK and LDH release in arbitrary units (a.u.).

CCCCCCCCNc1nc(=O)n(Cc2ccccc2)cc1C [PM6, 1-benzyl-5-methyl-4-(octylamino)pyrimidin-2(1H)-one] was tested, and the “decrease of TLR4 protein expression” value (TLR4) was 7.6 fold, the “inhibition of decrease of IκB protein level” value (IκB; 20 μM, compared to hypoxic cells not treated) was “roughly 7 fold” and the CK release (primary cardiomyocytes; 20 μM) was “significant reduction”. For the same compound, the LDH release (primary cardiomyocytes; 20 μM) was “significant reduction”.

CC[C@H](C)[C@H](NC(C)=O)C(=O)N[C@H](C(=O)N[C@@H](Cc1ccccc1)C(=O)N[C@@H](C)C(N)=O)C(C)C [SEQ ID NO:1, (2S,3S)-2-acetamido-N-((S)-1-(((S)-1-(((S)-1-amino-1-oxopropan-2-yl)amino)-1-oxo-3-phenylpropan-2-yl)amino)-3-methyl-1-oxobutan-2-yl)-3-methylpentanamide] (Ac-IVFA-NH2) was tested, and the “decrease of TLR4 protein expression relative to PM6” value (TLR4; positive control) was “same extent”, the IκB level (IκB; normalized to β-actin) was “high levels” and the “minimal effective concentration (cardioprotective effect, CK and LDH release)” value (primary cardiomyocytes) was 1 µM.

— patent publication US11925643B2, “Toll-like receptor 4 (TLR4) inhibitors and use thereof” (MOR RESEARCH APPLICATIONS LTD., priority 2018, dated 2024)
